Marks after values point to notes of the source that are not given here.
Columns and labels:
mouse skin = settings: in vivo
epidermal keratinocytes = experiment: Apoptotic epidermal keratinocytes in DMBA-treated mice; format: in vivo, mouse; settings: for Apoptotic Keratinocytes (%): single application 400 nmol DMBA
Text: The lack of tumor development in carcinogen treated C/EPBβ-null mice could be due to apoptosis of C/EBPβ-deficient keratinoyctes that have acquired oncogenic Ha-ras lesions. To examine this possibility we treated mice with DMBA and scored the number of apoptotic keratinocytes in C/EBPβ-null and wild type epidermis using the cytological parameters described in the Methods. […] Similar fold increases in apoptotic cells were observed using TUNEL staining (data not shown). To determine if C/EBPβ-null mice also display increased apoptosis in response to UVB irradiation, a potent inducer of apoptosis and DNA damage, wild type and C/EBPβ-null mice were irradiated with UVB doses of 50, 100 and 200 mJ/cm^2. While all UVB doses increased the number of apoptotic epidermal keratinocytes, there was no difference between wild type and mutant mice (data not shown).

C/EBPβ = experiment: Ha-ras (12V)-induced activation of C/EBPβ in mouse keratinocytes; format: cell-based
Text: A MAPK site has been identified in C/EBPβ. Replacing Thr-188 with an Ala-188 within this site completely blocks Ras-induced activation of C/EBPβ. […] Thus, the MAPK site in C/EBPβ, which is conserved in mouse, rat, bovine and human, is important in Ras signaling. Accordingly, useful compounds of the present invention are MAPK inhibitors such as PD98059, or compounds that bind the MAPK site in C/EBPβ and thus block oncogenic ras-induced activation.

Cc1c2ccccc2c(C)c2c1ccc1ccccc12 [DMBA, 7,12-dimethylbenz[a]anthracene] was tested, and the average papillomas/mouse (mouse skin; 129/Sv x C57BL/6 (wild type)) was 12 papillomas/mouse, the papilloma incidence (mouse skin) was “All of the wild-type mice developed papillomas” and the resistance to carcinogenesis (mouse skin) was “completely resistant”. The “increase in the number of basal apoptotic keratinocytes, C/EBPβ-null vs wild type mice” value (epidermal keratinocytes; DMBA-treated) was 17 fold, the “Apoptotic Keratinocytes (%)” value (epidermal keratinocytes; C/EBPβ −/− mice) was 1.73 ± 0.14^ab % and the “Apoptotic Keratinocytes (%)” value (epidermal keratinocytes; wild type mice) was 0.10 ± 0.02^a %.

With COc1cccc(-c2cc(=O)c3ccccc3o2)c1N [PD98059] the “Ha-ras (12V)-induced activation of C/EBPβ” value (C/EBPβ) was “partially blocks”.

In the case of ClC1(Cl)C2(Cl)C3(Cl)C4(Cl)C(Cl)(Cl)C5(Cl)C3(Cl)C1(Cl)C5(Cl)C24Cl (centres unmarked) [mirex], the tumor development (mouse skin) is reported as “refractory”.
